Assay results taken from article PMC7774954, “Interactomic affinity profiling by holdup assay: Acetylation and distal residues impact the PDZome-binding specificity of PTEN phosphatase” (PLoS ONE, 2020).
*1 amine or outer side, *2 acyl side, *3 side chain or, on linkers, in order; H or OH if unused. Where a SMILES comes first, the peptide text is derived from it. The star is where a group is joined. X1 = O=C(CCCC[C@@H]1SC[C@@H]2NC(=O)N[C@@H]21)NCCCOCCOCCOCCCN*; Suc = O=C(CCC(=O)[*:2])[*:1]

What was measured:
DLG1 PDZ 2 = target: T1, DLG1 PDZ 2 (Homo sapiens, UniProt Q12959); assay: Holdup assay, DLG1-2; type: binding; conditions: for BI: DLG1-2
T1 construct: made in house; host or cells: E. coli
T1 sequence (Q12959 319-405 limits assumed): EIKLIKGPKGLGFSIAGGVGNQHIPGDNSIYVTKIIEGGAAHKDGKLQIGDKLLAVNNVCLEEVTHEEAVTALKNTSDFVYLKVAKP
Procedure: (§1) The holdup assay was performed on a Tecan freedom Evo200 robot with 384-well plates in singlicate for the three 11-mer PTEN variants and the 13-mer PTEN peptide as described in [31, 32]. Briefly, prior to interaction assay, 2.5 μL of streptavidin resin was saturated in each well with 20 μL of biotinylated PBM peptides (42 μM) and then washed twice with an excess of free biotin, while the reference resin was incubated only with biotin. Right before the holdup experiment, the PDZ library was spiked with an internal standard of lysozyme. Then, the biotin- or PBM-saturated resin was incubated, each in a distinct well of a 384-well plate, with complete cell lysates diluted so that the concentration of the tag-PDZ present in the crude extract is adjusted at 4 μM. After a sufficient time to reach complex equilibrium (15 min.), a fast and mild filtration step is performed and the tag-PDZ concentrations were measured by capillary electrophoresis instrument (LabChip GXII, PerkinElmer, Massachusets, USA). Standard markers were used to convert migration time into molecular weight on the LabChip software and inappropriate molecular weight markers were corrected or excluded.
(§2) For filtered data, the BI was extracted with the following equation (Eq 1) that estimates the depleted fraction after superimposition of the sample and reference electropherograms: BI=Iref−Ilig/Iref (1) where Iref and Ilig are the intensities of the tag-PDZ peaks measured, for each PDZ domain/PBM peptide interaction pair, in the biotin reference and the PBM electropherograms, respectively.
(§3) BIs were transformed into dissociation constants (KD) using the following formula: KD=([PDZtot]−BI·[PDZtot])·([PBMtot]−BI·[PDZtot])/BI·[PDZtot] (2) where [PDZtot] and [PBMtot] correspond to the total concentrations of the PDZ domain (usually around 4 μM) and the PBM peptide used during the assay. Since the PBMtot concentration in the resin during the holdup assay parameter may differ from one peptide to another and remains unknown, it is impossible to directly convert BI values into KD constants. We systematically determined the KD constants for a subset of PDZ/PBM pairs by competitive FP. […] For each PBM, the average peptide concentration was calculated after outlier rejection based on the absolute distances from the median as compared to three times the standard deviation (3σ rule), with never more than 2 values rejected.

MAGI2 PDZ 3 = target: T2, MAGI2 PDZ 3 (Homo sapiens, UniProt Q86UL8); assay: Holdup assay, MAGI2-3; type: binding; conditions: for BI: MAGI2-3
T2 construct: made in house; host or cells: E. coli
T2 sequence (Q86UL8 605-683 limits assumed): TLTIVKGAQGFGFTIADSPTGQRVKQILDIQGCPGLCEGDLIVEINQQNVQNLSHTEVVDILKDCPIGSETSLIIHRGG
Procedure: as §1, §2, §3

NHERF2 PDZ 2 = target: T3, NHERF2 PDZ 2 (Homo sapiens, UniProt Q15599); assay: Holdup assay, NHERF2-2; type: binding; conditions: PDZ domain NHERF2-2 (gene MPDZ, 9)
T3 construct: made in house; host or cells: E. coli
T3 sequence (Q15599 150-230 limits assumed): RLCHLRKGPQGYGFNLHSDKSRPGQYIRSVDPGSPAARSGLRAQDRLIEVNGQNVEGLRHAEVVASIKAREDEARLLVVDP
Procedure: as §1, §2, §3

PARD3 PDZ 3 = target: T4, PARD3 PDZ 3 (Homo sapiens, UniProt Q8TEW0); assay: Holdup assay, PARD3-3; type: binding; conditions: for BI: PDZ domain PARD3-3
T4 construct: made in house; host or cells: E. coli
T4 sequence (Q8TEW0 590-677 limits assumed): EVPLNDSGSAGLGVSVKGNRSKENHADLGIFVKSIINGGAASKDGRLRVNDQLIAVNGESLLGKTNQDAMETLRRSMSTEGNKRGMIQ
Procedure: as §1, §2, §3

HTRA1-1 = target: T5, HTRA1-1 (Homo sapiens, UniProt Q92743); assay: Holdup assay, HTRA1-1; type: binding; conditions: for BI: HTRA1-1
T5 construct: His-MBP or His-TRX (N); made in house; host or cells: E. coli
T5 sequence (Q92743 365-467 limits assumed): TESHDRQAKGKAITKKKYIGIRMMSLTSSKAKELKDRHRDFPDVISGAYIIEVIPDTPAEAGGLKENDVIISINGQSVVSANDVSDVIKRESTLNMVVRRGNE
Procedure: as §1, §2

APBA3-1 = assay: Holdup assay, APBA3-1; type: binding, human
DLG1-3 = assay: Holdup assay, DLG1-3; type: binding, human
DLG2-2 = DLG2-2 (Homo sapiens, UniProt Q15700); assay: Holdup assay, DLG2-2; type: binding
Chain of DLG2-2 (Q15700 193-280): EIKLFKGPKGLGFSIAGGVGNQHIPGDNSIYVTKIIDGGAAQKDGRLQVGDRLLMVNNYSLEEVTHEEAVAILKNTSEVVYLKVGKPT

DLG5-3 = assay: Holdup assay, DLG5-3; type: binding, human
DVL3-1 = assay: Holdup assay, DVL3-1; type: binding, human
FRMPD1-1 = assay: Holdup assay, FRMPD1-1; type: binding, human
FRMPD2-1 = assay: Holdup assay, FRMPD2-1; type: binding, human
GRIP2-1 = assay: Holdup assay, GRIP2-1; type: binding, human
GRIP2-3 = assay: Holdup assay, GRIP2-3; type: binding, human
GRIP2-4 = assay: Holdup assay, GRIP2-4; type: binding, human
GRIP2-5 = assay: Holdup assay, GRIP2-5; type: binding, human
HTRA2-1 = assay: Holdup assay, HTRA2-1; type: binding, human
IL16-1 = assay: Holdup assay, IL16-1; type: binding, human
IL16-2 = assay: Holdup assay, IL16-2; type: binding, human
INADL-8 = INADL-8 (Homo sapiens, UniProt Q8NI35); assay: Holdup assay, INADL-8; type: binding
Chain of INADL-8 (Q8NI35 whole entry): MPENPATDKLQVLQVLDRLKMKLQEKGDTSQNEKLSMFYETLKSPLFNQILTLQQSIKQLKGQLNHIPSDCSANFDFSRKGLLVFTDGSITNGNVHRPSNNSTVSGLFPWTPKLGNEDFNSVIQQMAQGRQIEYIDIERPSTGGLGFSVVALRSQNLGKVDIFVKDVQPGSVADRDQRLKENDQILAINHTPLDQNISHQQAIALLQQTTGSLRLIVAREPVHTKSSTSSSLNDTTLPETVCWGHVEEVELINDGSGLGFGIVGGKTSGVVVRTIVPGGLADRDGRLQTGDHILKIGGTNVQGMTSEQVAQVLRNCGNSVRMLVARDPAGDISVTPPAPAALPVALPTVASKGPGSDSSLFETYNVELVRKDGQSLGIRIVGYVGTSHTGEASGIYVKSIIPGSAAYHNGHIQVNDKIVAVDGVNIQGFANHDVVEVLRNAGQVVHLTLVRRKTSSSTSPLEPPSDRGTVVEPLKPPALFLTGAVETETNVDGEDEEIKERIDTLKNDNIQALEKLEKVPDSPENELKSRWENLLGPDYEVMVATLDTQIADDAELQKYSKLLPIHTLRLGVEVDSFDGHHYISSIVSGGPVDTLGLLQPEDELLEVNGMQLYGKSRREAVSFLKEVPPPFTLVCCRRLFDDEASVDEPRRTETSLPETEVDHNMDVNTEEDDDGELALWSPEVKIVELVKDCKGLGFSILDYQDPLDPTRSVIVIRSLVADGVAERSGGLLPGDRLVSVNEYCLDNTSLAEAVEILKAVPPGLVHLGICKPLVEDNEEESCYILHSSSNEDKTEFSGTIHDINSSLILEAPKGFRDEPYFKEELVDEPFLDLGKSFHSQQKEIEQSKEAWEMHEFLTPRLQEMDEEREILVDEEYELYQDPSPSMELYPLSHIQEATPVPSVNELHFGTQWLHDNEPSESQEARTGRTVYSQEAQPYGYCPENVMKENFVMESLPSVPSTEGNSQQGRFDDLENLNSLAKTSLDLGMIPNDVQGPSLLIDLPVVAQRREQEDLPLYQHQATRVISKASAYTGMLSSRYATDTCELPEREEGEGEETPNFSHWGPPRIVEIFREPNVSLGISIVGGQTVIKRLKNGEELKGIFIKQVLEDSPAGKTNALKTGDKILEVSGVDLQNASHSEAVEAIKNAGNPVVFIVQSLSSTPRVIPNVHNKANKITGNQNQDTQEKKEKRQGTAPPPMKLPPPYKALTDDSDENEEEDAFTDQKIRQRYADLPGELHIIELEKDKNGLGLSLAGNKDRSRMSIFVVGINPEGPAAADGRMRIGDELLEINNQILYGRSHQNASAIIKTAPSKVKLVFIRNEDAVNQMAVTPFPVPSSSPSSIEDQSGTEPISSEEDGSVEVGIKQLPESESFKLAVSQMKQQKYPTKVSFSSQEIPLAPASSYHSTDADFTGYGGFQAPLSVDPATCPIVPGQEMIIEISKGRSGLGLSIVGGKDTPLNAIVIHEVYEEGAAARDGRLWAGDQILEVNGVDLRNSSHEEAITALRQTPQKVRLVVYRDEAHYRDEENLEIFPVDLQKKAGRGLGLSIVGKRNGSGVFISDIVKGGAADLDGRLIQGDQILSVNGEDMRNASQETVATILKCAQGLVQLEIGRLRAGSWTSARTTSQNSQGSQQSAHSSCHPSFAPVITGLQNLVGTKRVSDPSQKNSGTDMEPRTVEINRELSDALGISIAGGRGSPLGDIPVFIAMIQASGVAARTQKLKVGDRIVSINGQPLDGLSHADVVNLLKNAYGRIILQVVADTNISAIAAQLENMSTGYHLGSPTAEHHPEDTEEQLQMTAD

LIN7B-1 = assay: Holdup assay, LIN7B-1; type: binding, human
LNX2-4 = assay: Holdup assay, LNX2-4; type: binding, human
MAGI2-5 = MAGI2-5 (Homo sapiens, UniProt Q86UL8); assay: Holdup assay, MAGI2-5; type: binding
Chain of MAGI2-5 (Q86UL8 whole entry): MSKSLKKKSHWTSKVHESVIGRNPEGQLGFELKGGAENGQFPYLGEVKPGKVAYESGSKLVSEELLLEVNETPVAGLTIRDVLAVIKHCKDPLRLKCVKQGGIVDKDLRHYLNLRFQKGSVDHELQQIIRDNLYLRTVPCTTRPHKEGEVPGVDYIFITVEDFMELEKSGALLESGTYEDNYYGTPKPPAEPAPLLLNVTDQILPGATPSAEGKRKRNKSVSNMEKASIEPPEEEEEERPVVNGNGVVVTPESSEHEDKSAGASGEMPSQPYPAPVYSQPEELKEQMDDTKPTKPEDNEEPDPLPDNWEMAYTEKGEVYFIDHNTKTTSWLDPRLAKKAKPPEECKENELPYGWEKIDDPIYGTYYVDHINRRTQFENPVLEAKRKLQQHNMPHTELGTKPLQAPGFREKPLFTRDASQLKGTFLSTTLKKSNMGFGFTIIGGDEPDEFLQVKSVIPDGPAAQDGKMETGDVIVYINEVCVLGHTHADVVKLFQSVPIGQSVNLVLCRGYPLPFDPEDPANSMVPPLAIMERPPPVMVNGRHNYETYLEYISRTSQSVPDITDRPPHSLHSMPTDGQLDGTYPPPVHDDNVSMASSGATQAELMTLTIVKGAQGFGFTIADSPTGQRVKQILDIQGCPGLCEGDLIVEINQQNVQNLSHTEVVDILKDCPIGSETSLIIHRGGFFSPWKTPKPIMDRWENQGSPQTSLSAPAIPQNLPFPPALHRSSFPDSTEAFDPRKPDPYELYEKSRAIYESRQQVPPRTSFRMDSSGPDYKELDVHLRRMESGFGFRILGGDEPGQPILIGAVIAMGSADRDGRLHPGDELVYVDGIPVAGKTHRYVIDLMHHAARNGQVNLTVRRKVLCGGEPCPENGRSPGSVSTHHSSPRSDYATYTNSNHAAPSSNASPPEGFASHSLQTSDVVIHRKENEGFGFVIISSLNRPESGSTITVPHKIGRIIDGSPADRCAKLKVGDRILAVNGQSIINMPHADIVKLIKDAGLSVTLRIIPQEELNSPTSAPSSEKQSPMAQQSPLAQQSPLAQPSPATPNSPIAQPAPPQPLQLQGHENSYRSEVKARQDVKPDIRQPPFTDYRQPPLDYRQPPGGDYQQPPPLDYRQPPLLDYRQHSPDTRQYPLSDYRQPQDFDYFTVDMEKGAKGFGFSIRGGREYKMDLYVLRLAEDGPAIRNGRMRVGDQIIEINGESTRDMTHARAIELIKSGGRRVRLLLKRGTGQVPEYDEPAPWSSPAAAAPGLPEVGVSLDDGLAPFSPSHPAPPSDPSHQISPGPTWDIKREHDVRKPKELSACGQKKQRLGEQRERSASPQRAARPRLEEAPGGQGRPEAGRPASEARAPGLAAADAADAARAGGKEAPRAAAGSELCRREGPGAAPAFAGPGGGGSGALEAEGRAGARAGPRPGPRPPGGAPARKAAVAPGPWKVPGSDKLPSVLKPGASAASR

MLLT4-1 = assay: Holdup assay, MLLT4-1; type: binding, human
MPDZ-1 = assay: Holdup assay, MPDZ-1; type: binding, human
NHERF1 PDZ 1 = target: T6, NHERF1 PDZ 1 (Homo sapiens, UniProt O14745); assay: Holdup assay, NHERF1-1; type: binding
T6 construct: NHERF1-1 as the first PDZ domain of the NHERF1 protein; made in house; host or cells: E. coli
T6 sequence (O14745 14-94 limits assumed): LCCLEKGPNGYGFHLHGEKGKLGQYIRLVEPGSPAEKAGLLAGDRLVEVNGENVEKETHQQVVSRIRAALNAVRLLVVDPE
Procedure: as §1, §2, §3

Structure (SMILES): CC[C@H](C)[C@H](NC(=O)[C@H](CCC(N)=O)NC(=O)[C@@H](NC(=O)[C@H](Cc1c[nH]cn1)NC(=O)[C@H](CCC(N)=O)NC(=O)[C@H](CC(=O)O)NC(=O)[C@H](CCC(=O)O)NC(=O)[C@H](CC(=O)O)NC(=O)[C@H](Cc1ccccc1)NC(=O)[C@@H]1CCCN1C(=O)CCC(=O)NCCCOCCOCCOCCCNC(=O)CCCC[C@@H]1SC[C@@H]2NC(=O)N[C@@H]21)[C@@H](C)O)C(=O)N[C@H](C(=O)N[C@@H](CCCCN)C(=O)N[C@H](C(=O)O)C(C)C)[C@@H](C)O [PTEN_13] ({X1-Suc}-PFDEDQHTQITKV-OH)
- BI (DLG1 PDZ 2): 0.168
- Kd (MAGI2 PDZ 3): 30.1 µM
- BI (MAGI2 PDZ 3): 0.342
- BI (NHERF2 PDZ 2): 0.117
- KD (affinity measured by holdup) (PARD3 PDZ 3; PARD3 PDZ 3, singlicate, BI converted to KD, tag-PDZ 4 μM, 15 min, nd: not detected in the holdup assay): 96 µM
- BI (PARD3 PDZ 3): 0.051
- Kd (HTRA1-1): 52.3 µM
- BI (HTRA1-1): 0.235
- BI (APBA3-1): 0.015
- BI (DLG1-3): -0.033
- BI (DLG2-2): 0.054
- LogKD (DLG2-2): 3.826
- BI (DLG5-3): 0.002
- BI (DVL3-1): -0.003
- BI (FRMPD1-1): 0.081
- BI (FRMPD2-1): -0.07
- BI (GRIP2-1): -0.085
- BI (GRIP2-3): 0.027
- BI (GRIP2-4): -0.022
- BI (GRIP2-5): -0.06
- BI (HTRA2-1): -0.097
- BI (IL16-1): 0.018
- BI (IL16-2): -0.025
- BI (INADL-8): 0.247
- Kd (INADL-8): 48.8 µM
- BI (LIN7B-1): -0.079
- BI (LNX2-4): 0.093
- BI (MAGI2-5): 0.046
- LogKD (MAGI2-5): 3.826
- BI (MLLT4-1): 0.007
- BI (MPDZ-1): 0.011

Structure (SMILES): CC[C@H](C)[C@H](NC(=O)[C@H](CCC(N)=O)NC(=O)[C@@H](NC(=O)[C@H](Cc1c[nH]cn1)NC(=O)[C@H](CCC(N)=O)NC(=O)[C@H](CC(=O)O)NC(=O)[C@H](CCC(=O)O)NC(=O)[C@H](CC(=O)O)NC(=O)CCC(=O)NCCCOCCOCCOCCCNC(=O)CCCC[C@@H]1SC[C@@H]2NC(=O)N[C@@H]21)[C@@H](C)O)C(=O)N[C@H](C(=O)N[C@@H](CCCCNC(C)=O)C(=O)N[C@H](C(=O)O)C(C)C)[C@@H](C)O [PTEN_Ac]
- Kd (DLG1 PDZ 2): 35.6 µM
- BI (DLG1 PDZ 2): 0.425
- Kd (MAGI2 PDZ 3): 15.3 µM
- BI (MAGI2 PDZ 3): 0.625
- Kd (NHERF1 PDZ 1): 13.6 µM
- BI (NHERF1 PDZ 1; PDZ domain NHERF1-1): 0.652
- BI (NHERF2 PDZ 2): 0.066
- BI (PARD3 PDZ 3): 0.104
- Kd (HTRA1-1): 10.2 µM
- BI (HTRA1-1): 0.712
- BI (APBA3-1): -0.113
- LogKD (APBA3-1): 3.605
- BI (DLG1-3): -0.088
- LogKD (DLG1-3): 3.605
- BI (DLG2-2): 0.329
- Kd (DLG2-2): 54.4 µM
- BI (DLG5-3): -0.047
- LogKD (DLG5-3): 3.605
- BI (DVL3-1): -0.002
- LogKD (DVL3-1): 3.605
- BI (FRMPD1-1): -0.03
- LogKD (FRMPD1-1): 3.605
- BI (FRMPD2-1): -0.083
- LogKD (FRMPD2-1): 3.605
- BI (GRIP2-1): -0.038
- LogKD (GRIP2-1): 3.605
- BI (GRIP2-3): 0.055
- LogKD (GRIP2-3): 3.605
- BI (GRIP2-5): 0.067
- LogKD (GRIP2-5): 3.605
- BI (HTRA2-1): -0.074
- LogKD (HTRA2-1): 3.605
- BI (IL16-1): 0.039
- LogKD (IL16-1): 3.605
- BI (IL16-2): -0.157
- LogKD (IL16-2): 3.605
- BI (INADL-8): 0.509
- Kd (INADL-8): 25 µM
- BI (LIN7B-1): -0.004
- LogKD (LIN7B-1): 3.605
- BI (LNX2-4): 0.013
- LogKD (LNX2-4): 3.605
- BI (MAGI2-5): 0.148
- BI (MPDZ-1): 0.074
- LogKD (MPDZ-1): 3.605
